Results from patent US4447603A, “Substituted-6-n-propyl-8-methylimidazo[1,5-d]-as-triazin-4-(3H)-ones” (American Cyanamid Company, priority 1981, dated 1984).

system: histamine release from immunologically stimulated human basophils; test: inhibition of mediator (histamine) release from immunologically stimulated human basophils; format: cell-based; settings: Leukocyte, 1 h; human basophils (leukocytes) challenged with anti-IgE or antigen, 60 minutes at 37° C.; linear regression; read-out: ED50 (the concentration in μM which causes a 50% inhibition of histamine release)
From the text: The novel compounds of this invention as well as the prior art compound, 6-n-propyl-8-methylimidazo[1,5-d]-as-triazin-4(3H)-one, have been tested by the procedure of Lichtenstein, L. M. and Osler, A. G., J. Exp. Med., 120, 507-530, (1964), which evaluates the ability of compounds to inhibit mediator (histamine) release from immunologically stimluated human basophils.
Dissolve 140.3 g. of sodium chloride, 7.45 g. of potassium chloride and 74.5 g. of Trizma-Tris Pre-Set, Reagent Grade, pH 7.6, at 25° C. (Sigma Chemical Co.) in sufficient water to give a final volume of 2 liters.
(Sigma Chemical Co.) (30 mg./ml.)
Made to 0.075 M and 0.5 M. respectively, with calcium chloride dihydrate and magnesium chloride hexahydrate.
A 10 ml. portion of 10X Tris Buffer and 1.0 ml. of human albumin are diluted to 100 ml. with water.
A 10 ml. portion of 10X Tris Buffer, 1.0 ml. of human albumin. 0.8 ml. of calcium stock and 0.2 ml. of magnesium stock are diluted to 100 ml. with water.
Behring Diagnostics (Generally used at 10 μg. protein/ml. final concentration.)
Strength 1:100 (w:v) allergenic extract, Hollister-Stier Labs. Generally this is diluted 1:1000 to 1:10,000 (considering the vial as stock).
Intradermal solutions or intramuscular preparations for hyposensitization, Hollister-Stier Labs. The final concentration used is on the order of 1 PNU/ml.
Eighty milliliters of blood is withdrawn from subjects with known histamine release to anti-IgE, ragweed antigen or other specific allergen, using four 20 ml. heparinized tubes. This 80 ml. of blood is mixed with 20 ml. of saline containing 0.6 g. of dextrose and 1.2 g. of dextran. The blood is allowed to sediment at room temperature in two 50 ml. polycarbonate centrifuge tubes until a sharp interface develops between the red cells and plasma (60-90 minutes). The plasma (top) layer from each tube is withdrawn by pipet and transferred to respective 50 ml. polycarbonate tubes. The plasma is centrifuged for 8 minutes at 110X g at […] The supernatant is carefully poured off as completely as possible and the cell button is resuspended in 2-3 ml. of Tris-A buffer using a siliconized Pasteur pipet. The resuspension is accomplished by drawing the liquid gently in and out of the pipet, with the tip below the liquid, until an even suspension of cells is obtained. Sufficient Tris-A buffer is then added to bring the volume in the tube to about 45 ml. and the tube is centrifuged at 110X g for 8 minutes at 4° C. The supernatant is poured off and the cell button is resuspended and centrifuged as described above. […]

| IC50 [µM] | Compound |
| --- | --- |
| 16.1 | CCCc1n[nH]c(=O)n2c(CCC)nc(C)c12 [1,6-Di-n-propyl-8-methylimidazo[1,5-d]-as-triazin-4(3H)-one] |
| 13.1 | CCCc1nc(C)c2c(C)n[nH]c(=O)n12 [1,8-Dimethyl-6-n-propylimidazo[1,5-d]-as-triazin-4(3H)-one] |
| 12.3 | CCCc1nc(C)c2c(CC)n[nH]c(=O)n12 [1-Ethyl-6-n-propyl-8-methylimidazo[1,5-d]-as-triazin-4(3H)-one] |
| 87 | CCCc1nc(C)c2cn[nH]c(=O)n12 [6-n-propyl-8-methylimidazo[1,5-d]-as-triazin-4(3H)-one, reference compound] |
